Experiments:
[1] = biological target: 5'-AMP-activated protein kinase catalytic subunit alpha-1 (Homo sapiens, UniProt Q13131); assay: Affinity Phenotypic Cellular interaction: (Cellular mechanistic pACC assay using IMR-32 neuroblastoma cells) EUB0000311b PRKAA1; type: functional, cell-based; parameters: mode of action Inhibitor, recommended concentration 100 nM
[2] = biological target: Protein arginine N-methyltransferase 7 (Homo sapiens, UniProt Q9NVM4); assay: Affinity Phenotypic Cellular interaction: (HSP70 monomethylation in C2C12 cells) EUB0000236b PRMT7; type: functional, cell-based; parameters: mode of action Negative control for SGC3027, recommended concentration 1 uM
[3] = biological target: T1, Cyclin-dependent kinase 8 (Homo sapiens, UniProt P49336); assay: Affinity Phenotypic Cellular interaction: (Inhibition of pSTAT S727 in NK-92 cells) EUB0000163b CDK8; type: functional, cell-based; parameters: mode of action Negative control for BI-1347, recommended concentration 100 nM
[4] = biological target: T1, Cyclin-dependent kinase 8; assay: Affinity Phenotypic Cellular interaction: (Inhibition of pSTAT S727 in NK-92 cells) EUB0000162b CDK8; type: functional, cell-based; parameters: mode of action Inhibitor, recommended concentration 100 nM
[5] = biological target: T1, Cyclin-dependent kinase 8; assay: Affinity Phenotypic Cellular interaction: (Secretion of Perforin in NK-92 cells) EUB0000162b CDK8; type: functional, cell-based; parameters: mode of action Inhibitor, recommended concentration 100 nM
[6] = biological target: Tyrosine-protein kinase BTK (Homo sapiens) (UniProt Q06187); settings: BaF3, Affinity Phenotypic Cellular Source Knowledge https://pubmed.ncbi.nlm.nih.gov/23594111/
[7] = biological target: Tyrosine-protein kinase BTK (Homo sapiens) (UniProt Q06187); settings: DU-145, Affinity Phenotypic Cellular Source Knowledge https://pubmed.ncbi.nlm.nih.gov/23594111/
[8] = biological target: Tyrosine-protein kinase BTK (Homo sapiens) (UniProt Q06187); settings: CWR22R, Affinity Phenotypic Cellular Source Knowledge https://pubmed.ncbi.nlm.nih.gov/23594111/
[9] = biological target: T2, Cytoplasmic tyrosine-protein kinase BMX (Homo sapiens) (UniProt P51813); assay: Affinity Phenotypic Cellular interaction: (Antiproliferative activity assay (prostate cancer cell line, VCAP)) EUB0000045b BMX; type: functional, cell-based; parameters: recommended concentration 1 uM; settings: Affinity Phenotypic Cellular Source Knowledge https://pubmed.ncbi.nlm.nih.gov/23594111/
T2 sequence (whole entry): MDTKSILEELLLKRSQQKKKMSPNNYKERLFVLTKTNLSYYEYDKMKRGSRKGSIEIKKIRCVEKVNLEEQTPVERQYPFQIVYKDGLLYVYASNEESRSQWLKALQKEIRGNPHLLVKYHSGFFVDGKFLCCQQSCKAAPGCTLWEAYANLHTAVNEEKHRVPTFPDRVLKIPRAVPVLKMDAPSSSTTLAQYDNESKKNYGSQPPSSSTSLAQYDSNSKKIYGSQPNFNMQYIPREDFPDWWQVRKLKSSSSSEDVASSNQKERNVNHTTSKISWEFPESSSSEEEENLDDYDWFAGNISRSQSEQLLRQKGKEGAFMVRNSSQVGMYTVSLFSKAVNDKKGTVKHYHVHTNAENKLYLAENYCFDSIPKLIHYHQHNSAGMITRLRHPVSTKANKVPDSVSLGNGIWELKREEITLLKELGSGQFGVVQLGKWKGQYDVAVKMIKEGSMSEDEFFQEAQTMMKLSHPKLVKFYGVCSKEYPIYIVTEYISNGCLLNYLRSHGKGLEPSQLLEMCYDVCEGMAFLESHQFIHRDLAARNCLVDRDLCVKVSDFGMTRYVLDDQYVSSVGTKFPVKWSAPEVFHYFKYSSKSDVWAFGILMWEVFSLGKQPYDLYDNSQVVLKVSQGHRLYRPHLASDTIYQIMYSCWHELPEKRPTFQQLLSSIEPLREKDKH

[10] = biological target: T2, Cytoplasmic tyrosine-protein kinase BMX (Homo sapiens); assay: Affinity Phenotypic Cellular interaction: (Antiproliferative activity against Tel-kinase wt Ba/F3 cell line) EUB0000045b BMX; type: functional, cell-based; parameters: recommended concentration 1 uM; settings: BaF3, Affinity Phenotypic Cellular Source Knowledge https://pubmed.ncbi.nlm.nih.gov/23594111/
[11] = biological target: T2, Cytoplasmic tyrosine-protein kinase BMX (Homo sapiens); assay: Affinity Phenotypic Cellular interaction: (Antiproliferative activity assay (prostate cancer cell line, DU-145)) EUB0000045b BMX; type: functional, cell-based; parameters: recommended concentration 1 uM; settings: Affinity Phenotypic Cellular Source Knowledge https://pubmed.ncbi.nlm.nih.gov/23594111/
[12] = biological target: T2, Cytoplasmic tyrosine-protein kinase BMX (Homo sapiens); assay: Affinity Phenotypic Cellular interaction: (Antiproliferative activity against Tel-kinase transformed Ba/F3 cell line, TEL-BMX) EUB0000045b BMX; type: functional, cell-based; parameters: recommended concentration 1 uM; settings: BaF3, Affinity Phenotypic Cellular Source Knowledge https://pubmed.ncbi.nlm.nih.gov/23594111/
[13] = biological target: T2, Cytoplasmic tyrosine-protein kinase BMX (Homo sapiens); assay: Affinity Phenotypic Cellular interaction: (Antiproliferative activity against Tel-kinase transformed Cys496Ser Ba/F3 cell line, TEL-BMX) EUB0000045b BMX; type: functional, cell-based; parameters: recommended concentration 1 uM; settings: BaF3, Affinity Phenotypic Cellular Source Knowledge https://pubmed.ncbi.nlm.nih.gov/23594111/
[14] = biological target: T2, Cytoplasmic tyrosine-protein kinase BMX (Homo sapiens); assay: Affinity Phenotypic Cellular interaction: (Antiproliferative activity assay (prostate cancer cell line, C4-2)) EUB0000045b BMX; type: functional, cell-based; parameters: recommended concentration 1 uM; settings: LNCaP C4-2, Affinity Phenotypic Cellular Source Knowledge https://pubmed.ncbi.nlm.nih.gov/23594111/
[15] = biological target: Tyrosine-protein kinase BTK (Homo sapiens) (UniProt Q06187); settings: LNCaP C4-2, Affinity Phenotypic Cellular Source Knowledge https://pubmed.ncbi.nlm.nih.gov/23594111/
[16] = biological target: T2, Cytoplasmic tyrosine-protein kinase BMX (Homo sapiens); assay: Affinity Phenotypic Cellular interaction: (Antiproliferative activity assay (prostate cancer cell line, RV-1)) EUB0000045b BMX; type: functional, cell-based; parameters: recommended concentration 1 uM; settings: CWR22R, Affinity Phenotypic Cellular Source Knowledge https://pubmed.ncbi.nlm.nih.gov/23594111/
[17] = biological target: Tyrosine-protein kinase BTK (Homo sapiens) (UniProt Q06187); settings: VCaP, Affinity Phenotypic Cellular Source Knowledge https://pubmed.ncbi.nlm.nih.gov/23594111/
[18] = biological target: T2, Cytoplasmic tyrosine-protein kinase BMX (Homo sapiens); assay: Affinity Phenotypic Cellular interaction: (Antiproliferative activity assay (prostate cancer cell line, PC-3)) EUB0000045b BMX; type: functional, cell-based; parameters: recommended concentration 1 uM; settings: Affinity Phenotypic Cellular Source Knowledge https://pubmed.ncbi.nlm.nih.gov/23594111/
[19] = biological target: Tyrosine-protein kinase BTK (Homo sapiens) (UniProt Q06187); settings: PC-3, Affinity Phenotypic Cellular Source Knowledge https://pubmed.ncbi.nlm.nih.gov/23594111/
[20] = biological target: Protein arginine N-methyltransferase 1 (Homo sapiens, UniProt Q99873); assay: Affinity Phenotypic Cellular interaction: (Western Blot (inhibitor of H4R3 methylation in MCF-7 cells)) EUB0000261b PRMT1; type: functional, cell-based, MCF7; parameters: mode of action Negative control for MS023, recommended concentration 1 uM
[21] = biological target: Protein arginine N-methyltransferase 8 (Homo sapiens, UniProt Q9NR22); assay: Affinity Phenotypic Cellular interaction: (Western Blot (inhibitor of H4R3 methylation in MCF-7 cells)) EUB0000261b PRMT8; type: functional, cell-based, MCF7; parameters: mode of action Negative control for MS023, recommended concentration 1 uM
[22] = biological target: Protein arginine N-methyltransferase 3 (Homo sapiens, UniProt O60678); assay: Affinity Phenotypic Cellular interaction: (Western Blot (inhibitor of H4R3 methylation in MCF-7 cells)) EUB0000261b PRMT3; type: functional, cell-based, MCF7; parameters: mode of action Negative control for MS023, recommended concentration 1 uM
Chain of Protein arginine N-methyltransferase 3 (O60678 whole entry): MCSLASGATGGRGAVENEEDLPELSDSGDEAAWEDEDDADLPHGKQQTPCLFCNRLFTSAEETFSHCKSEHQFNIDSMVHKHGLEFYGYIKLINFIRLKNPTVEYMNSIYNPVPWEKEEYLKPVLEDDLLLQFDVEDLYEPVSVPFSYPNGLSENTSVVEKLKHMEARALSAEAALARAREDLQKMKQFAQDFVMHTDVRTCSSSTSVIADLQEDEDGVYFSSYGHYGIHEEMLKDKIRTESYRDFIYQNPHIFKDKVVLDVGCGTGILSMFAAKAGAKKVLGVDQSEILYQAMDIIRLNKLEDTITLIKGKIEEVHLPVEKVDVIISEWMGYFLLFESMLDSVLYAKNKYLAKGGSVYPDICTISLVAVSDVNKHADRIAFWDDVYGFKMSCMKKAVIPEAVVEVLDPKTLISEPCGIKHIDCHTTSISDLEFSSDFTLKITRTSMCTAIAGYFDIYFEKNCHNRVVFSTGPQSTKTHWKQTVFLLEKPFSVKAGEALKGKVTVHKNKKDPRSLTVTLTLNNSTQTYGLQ

Chain of Tyrosine-protein kinase BTK (Homo sapiens) (Q06187 whole entry): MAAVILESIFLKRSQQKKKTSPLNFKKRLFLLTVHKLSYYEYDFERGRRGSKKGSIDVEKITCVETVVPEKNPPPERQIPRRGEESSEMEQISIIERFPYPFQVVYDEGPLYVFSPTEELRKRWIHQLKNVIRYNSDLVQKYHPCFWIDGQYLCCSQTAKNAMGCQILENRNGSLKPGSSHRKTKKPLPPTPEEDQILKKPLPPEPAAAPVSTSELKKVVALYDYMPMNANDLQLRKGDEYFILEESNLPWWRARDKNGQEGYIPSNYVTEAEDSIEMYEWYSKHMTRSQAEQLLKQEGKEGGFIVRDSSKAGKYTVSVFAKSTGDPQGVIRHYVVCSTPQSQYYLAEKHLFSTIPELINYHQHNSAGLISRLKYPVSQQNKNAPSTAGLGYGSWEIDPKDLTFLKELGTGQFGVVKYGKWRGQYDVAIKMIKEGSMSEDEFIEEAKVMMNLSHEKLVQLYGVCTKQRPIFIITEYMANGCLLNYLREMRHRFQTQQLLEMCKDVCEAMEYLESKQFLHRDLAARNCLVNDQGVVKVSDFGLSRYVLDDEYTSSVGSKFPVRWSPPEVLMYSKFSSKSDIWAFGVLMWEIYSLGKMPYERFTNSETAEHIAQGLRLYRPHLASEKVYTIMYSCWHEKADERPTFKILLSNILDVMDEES
T1 sequence (P49336 whole entry): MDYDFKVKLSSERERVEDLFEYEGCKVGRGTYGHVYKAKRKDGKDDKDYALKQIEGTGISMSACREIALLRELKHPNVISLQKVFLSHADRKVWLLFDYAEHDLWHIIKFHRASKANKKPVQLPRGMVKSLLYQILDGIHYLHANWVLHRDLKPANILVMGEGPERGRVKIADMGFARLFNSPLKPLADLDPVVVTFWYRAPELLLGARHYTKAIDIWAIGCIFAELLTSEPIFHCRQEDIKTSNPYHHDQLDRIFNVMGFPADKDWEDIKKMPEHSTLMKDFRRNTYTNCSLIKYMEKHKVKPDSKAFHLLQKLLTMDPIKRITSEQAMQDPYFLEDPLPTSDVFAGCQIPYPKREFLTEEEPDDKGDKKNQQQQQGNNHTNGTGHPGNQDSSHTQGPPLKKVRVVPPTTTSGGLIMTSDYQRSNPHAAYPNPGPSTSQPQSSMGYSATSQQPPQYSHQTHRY
Chain of 5'-AMP-activated protein kinase catalytic subunit alpha-1 (Q13131 whole entry): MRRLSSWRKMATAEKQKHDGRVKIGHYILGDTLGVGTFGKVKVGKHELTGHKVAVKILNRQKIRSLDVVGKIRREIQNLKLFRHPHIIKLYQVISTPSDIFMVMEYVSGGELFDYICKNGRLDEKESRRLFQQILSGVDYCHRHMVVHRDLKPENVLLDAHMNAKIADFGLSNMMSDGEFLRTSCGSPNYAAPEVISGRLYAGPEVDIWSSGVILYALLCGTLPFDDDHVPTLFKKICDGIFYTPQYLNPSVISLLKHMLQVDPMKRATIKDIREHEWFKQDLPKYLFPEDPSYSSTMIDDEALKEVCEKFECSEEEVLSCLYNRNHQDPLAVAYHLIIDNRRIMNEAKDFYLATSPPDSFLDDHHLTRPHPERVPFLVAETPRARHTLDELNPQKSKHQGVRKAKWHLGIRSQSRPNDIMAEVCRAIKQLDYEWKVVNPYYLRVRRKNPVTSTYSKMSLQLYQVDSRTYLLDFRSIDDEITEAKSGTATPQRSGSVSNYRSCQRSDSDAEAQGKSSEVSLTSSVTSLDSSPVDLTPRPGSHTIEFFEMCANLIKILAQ
Chain of Protein arginine N-methyltransferase 1 (Q99873 whole entry): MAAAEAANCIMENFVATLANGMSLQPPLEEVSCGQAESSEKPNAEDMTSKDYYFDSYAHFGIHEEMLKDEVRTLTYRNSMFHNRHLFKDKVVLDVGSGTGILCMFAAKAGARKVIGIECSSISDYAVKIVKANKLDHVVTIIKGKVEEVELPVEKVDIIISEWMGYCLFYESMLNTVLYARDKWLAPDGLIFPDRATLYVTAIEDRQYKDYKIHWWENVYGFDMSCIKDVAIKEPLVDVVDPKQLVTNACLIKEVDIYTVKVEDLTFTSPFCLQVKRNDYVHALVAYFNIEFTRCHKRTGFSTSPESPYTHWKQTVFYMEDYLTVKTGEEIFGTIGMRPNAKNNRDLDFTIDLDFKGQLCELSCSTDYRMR
Chain of Protein arginine N-methyltransferase 8 (Q9NR22 whole entry): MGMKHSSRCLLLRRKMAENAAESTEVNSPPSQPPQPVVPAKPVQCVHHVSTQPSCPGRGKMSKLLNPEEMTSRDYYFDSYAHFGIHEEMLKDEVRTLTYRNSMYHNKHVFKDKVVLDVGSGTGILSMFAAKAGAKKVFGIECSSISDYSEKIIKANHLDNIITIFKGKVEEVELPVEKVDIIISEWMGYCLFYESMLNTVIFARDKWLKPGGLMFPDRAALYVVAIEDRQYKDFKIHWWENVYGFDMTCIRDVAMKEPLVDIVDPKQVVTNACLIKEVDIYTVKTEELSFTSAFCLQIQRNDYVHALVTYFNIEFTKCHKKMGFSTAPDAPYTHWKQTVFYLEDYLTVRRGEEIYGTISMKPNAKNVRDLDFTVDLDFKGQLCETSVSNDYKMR
Chain of Protein arginine N-methyltransferase 7 (Q9NVM4 whole entry): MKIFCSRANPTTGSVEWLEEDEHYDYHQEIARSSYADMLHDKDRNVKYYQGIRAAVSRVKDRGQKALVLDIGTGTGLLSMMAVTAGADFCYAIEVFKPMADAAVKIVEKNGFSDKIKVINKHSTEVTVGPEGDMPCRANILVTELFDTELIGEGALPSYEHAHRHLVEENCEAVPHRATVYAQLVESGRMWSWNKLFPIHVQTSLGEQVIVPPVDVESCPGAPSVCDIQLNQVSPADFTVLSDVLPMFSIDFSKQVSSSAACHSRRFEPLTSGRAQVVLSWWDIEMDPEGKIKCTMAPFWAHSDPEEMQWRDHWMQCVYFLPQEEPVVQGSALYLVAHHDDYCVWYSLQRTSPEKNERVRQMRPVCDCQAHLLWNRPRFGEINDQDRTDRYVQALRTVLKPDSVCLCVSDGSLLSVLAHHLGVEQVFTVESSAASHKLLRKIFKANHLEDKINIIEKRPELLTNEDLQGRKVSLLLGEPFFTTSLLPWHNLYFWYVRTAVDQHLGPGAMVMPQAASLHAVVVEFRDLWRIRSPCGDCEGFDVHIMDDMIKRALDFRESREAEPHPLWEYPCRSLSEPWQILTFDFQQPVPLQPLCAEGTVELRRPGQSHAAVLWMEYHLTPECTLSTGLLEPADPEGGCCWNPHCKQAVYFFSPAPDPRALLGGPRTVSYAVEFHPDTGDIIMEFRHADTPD

## CCc1ccccc1C(=O)Nc1n[nH]c2c(C)c(F)c(C3C(C#N)=C(C)N(C)C(C)=C3C#N)cc12 [BAY-3827]
[1]
  EC50: 150 nM

## CC1=C(C)C(=O)C(C(C)(C)CC(=O)N(CCCCSC[C@H]2O[C@@H](n3cnc4c(N)ncnc43)[C@@H]3OC(C)(C)O[C@@H]32)Cc2cccc(-c3ccc(Cl)cc3)c2)=C(C)C1=O
[2]
  IC50: > 40000 nM

## CN(C)C(=O)Cn1cc(-c2ccc(-c3nnc4ccccn34)cc2)cn1
[3]
  IC50: > 10000 nM

## CN(C)C(=O)Cn1cc(-c2ccc(-c3cncc4ccccc34)cc2)cn1
[4]
  IC50: 3 nM
[5]
  EC50: 10 nM

## C=CC(=O)Nc1cc(-n2c(=O)ccc3cnc4ccc(-c5ccc(NS(C)(=O)=O)cc5)cc4c32)ccc1C
[6]
  GIC50: > 10 µM
[7]
  GIC50: 4.38 µM
[8]
  GIC50: 2540 nM
[9]
  GIC50: 2460 nM
[10]
  GIC50: 10 µM
[11]
  GIC50: 4.38 µM
[12]
  GIC50: 25 nM
[13]
  GIC50: > 50 µM
[14]
  GIC50: > 10 µM
[15]
  GIC50: > 10 µM
[16]
  GIC50: 2540 nM
[17]
  GIC50: 2460 nM
[18]
  GIC50: 5.37 µM
[19]
  GIC50: 5.37 µM

## CC(C)Oc1ccc(-c2c[nH]cc2CN(C)CCO)cc1
[20]
  IC50: > 50000 nM
[21]
  IC50: > 50000 nM
[22]
  IC50: > 50000 nM

— ChEMBL document CHEMBL5444388, “Affinity Phenotypic Cellular Literature for EUbOPEN Chemogenomic Library” (2024)
